The values that follow come from PubChem BioAssay (NCI).

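Following 48 hours of exposure in 96-well plates, responses at five concentrations were used to interpolate endpoints linearly. Abbreviation: GI50, concentration required for 50% inhibition of growth. TGI is the concentration that stops growth completely.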 Where a SMILES comes first, the peptide text is derived from it. Bridges are numbered along the chain shown (N, C = ends). The star is where a group is joined. Cbz = O=C(OCc1ccccc1)* Where only a bound is given, the exact number is not on record here.

Experiment in all cases: NCI tumour cell line growth inhibition, 48 h
For assay [1], the system named is PC-3 prostate.
Assay [2] deals with MALME-3M melanoma.
Assay [3] relates to SF-268 CNS.
The test system of assay [4] is EKVX NSCLC.
For assay [5], the system named is OVCAR-4 ovarian.
For assay [6], the system named is UACC-257 melanoma.
The subject of assay [7] is UACC-62 melanoma.
For assay [8], the system named is LOX IMVI melanoma.
For assay [9], the system named is SF-295 CNS.
The subject of assay [10] is HCT-15 colon.
The test system of assay [11] is 786-0 renal.
In assay [12] the test system is NCI-H522 lung.

As to `O=C(O)c1cc(Cl)cc2c1NC1(N2)C(=O)Nc2ccccc21` (stereo not drawn), the TGI in [1], in assay [2], in [3], in [4], in assay [5] and in assay [6] was > 100 µM throughout. Besides, the TGI in assay [7], in assay [8], in assay [9], in assay [10], in assay [11] and in assay [12] was > 100 µM each time.
For the compound `Cn1c2c(c3ccccc31)CCN1C(=O)C3SC21C1C(=O)N(c2ccccc2)C(=O)C31` (stereo not drawn), in assay [1], the GI50 is 23.4 µM. The TGI in assay [1] was > 100 µM; in assay [2], > 100 µM; in [3], > 100 µM; in [4] it was > 100 µM; in [5], > 100 µM; in [6] it was > 69.2 µM. Also, the TGI was > 86.3 µM in assay [7]; > 100 µM in assay [8]; > 100 µM in [9]; > 100 µM in [10]; > 100 µM in assay [11]; > 100 µM in assay [12].
With `COC(=O)C1CCCCNC(=O)CCC(NC(=O)OCc2ccccc2)C(=O)N1` (stereo not drawn) (Cbz-Glu-Lys-OMe; lactam 1-2; configuration not given here), the TGI in [1], in assay [2], in assay [3], in [4], in assay [5] and in [6] was > 100 µM in each case. Besides, the TGI in [7], in [8], in assay [9], in assay [10], in [11] and in assay [12] was > 100 µM in each case.
Turning to `O=S1(=O)C(c2ccccc2)=C(O)c2ccccc21`, the TGI in assay [1], in assay [2], in assay [3], in assay [4], in assay [5] and in assay [6] was > 100 µM throughout. The TGI in [7], in assay [8], in assay [9], in assay [10], in assay [11] and in assay [12] was > 100 µM in each case.
As for `Cc1nn(C(=O)c2ccncc2)c2c1C(c1cccc([N+](=O)[O-])c1)SC(N)=N2` (stereo not drawn), the TGI in [1], in assay [2], in assay [3], in assay [4], in assay [5] and in assay [6] was > 10 µM throughout. The TGI in assay [7], in assay [8], in assay [9], in assay [10], in assay [11] and in assay [12] was > 10 µM in each case.
As to `CC(=O)CC(C)(C)NC(=O)[C@@]1(O)CC[C@H]2[C@@H]3CCC4=CC(=O)CC[C@@H]4[C@H]3CC[C@@]21C`, the TGI in assay [1], in [2], in [3], in [4], in assay [5] and in assay [6] was > 100 µM in each case. Moreover, the TGI in assay [7], in [8], in assay [9], in assay [10], in [11] and in assay [12] was > 100 µM throughout.
For the compound `S=C(N/N=C\c1ccccn1)N(Cc1ccccn1)Cc1ccccn1`, the TGI turned out to be 32.9 µM in assay [1]; 16.9 µM in assay [2]; 30.9 µM in assay [3]; 17.2 µM in assay [4]; 18.7 µM in assay [5]; 39.5 µM in assay [6]. The TGI in [7] was > 23.1 µM; in [8], 12.6 µM; in assay [9], 16.3 µM; in [10] it was > 43.2 µM; in assay [11], 13.3 µM; in assay [12], 33.1 µM.
In the case of `Cc1cc(C)c2c(=N)c3ccccc3n(CCCCCCO)c2n1`, the TGI in assay [1] amounted to 11.9 µM; in assay [2], 5.95 µM; in assay [3], 13.9 µM; in assay [4], 6.33 µM; in assay [5] it was 9.85 µM; in assay [6], 15.8 µM. Besides, the TGI amounted to 8.89 µM in assay [7]; 5.17 µM in assay [8]; 11.9 µM in assay [9]; 9.69 µM in [10]; 9.53 µM in assay [11]; 3.14 µM in assay [12].
On to `CCOP(=O)(OCC)C1(O)CC(n2cc(C)c(=O)[nH]c2=O)OC1CO` (stereo not drawn), for which the TGI in [1], in assay [2], in assay [3], in [4], in assay [5] and in assay [6] was > 100 µM throughout. The TGI in [7], in assay [8], in assay [9], in [10], in assay [11] and in assay [12] was > 100 µM throughout.
In the case of `COC(=O)/C(=C\c1ccco1)P(=O)(OC)OC`, the TGI in assay [1] was > 100 µM; in [2], 59 µM; in assay [3] it was > 100 µM; in assay [4] it was > 100 µM; in assay [5], 33.7 µM; in [6], > 100 µM. For the same compound, the TGI is > 100 µM in assay [7]; 71 µM in assay [8]; 51.4 µM in assay [9]; > 100 µM in assay [10]; > 100 µM in assay [11]; 5.52 µM in [12].
For the compound `CCCCc1ccc(-n2sc3ncccc3c2=O)cc1`, the TGI in assay [1] was found to be 25.5 µM; in assay [2] it was 14.9 µM; in assay [3], 47.4 µM; in assay [4], 25.2 µM; in [5], 58 µM; in [6], 43.7 µM. Further, the TGI in assay [7] amounted to 43.9 µM; in assay [8] it was 43.6 µM; in [9], 31.2 µM; in [10] it was 19.9 µM; in assay [11], 25.2 µM; in [12] it was 8.4 µM.
